System: phosphorylation of Serine 473 in Akt
Assay: In Vitro Phospho-Ser473 Akt Assay in MDA-MB-468 cells
Assay type: cell-based
Settings: Homo sapiens, MDA-MB-468, read-out: IC50 values against mTOR, phospho-Ser473 Akt assay, MDA-MB-468 cells

SMILES | IC50
COc1ccc(-c2ccc3c(N4CCOC[C@@H]4C)nc(N4CCOC[C@@H]4C)nc3n2)cc1F [Example 1bs] | < 100 nM
C[C@H]1COCCN1c1nc(N2CCOC[C@@H]2C)c2ccc(-c3ccoc3)nc2n1 [Example 1bv] | < 100 nM
C[C@@H]1CN(c2nc(N3CCOC[C@@H]3C)c3ccc(-c4cccc(CO)c4)nc3n2)C[C@H](C)O1 [Example 1bx] | < 300 nM
C[C@@H]1CN(c2nc(N3CCOC[C@@H]3C)c3ccc(-c4ccc(CO)cc4)nc3n2)C[C@H](C)O1 [Example 1by] | < 300 nM
C[C@@H]1CN(c2nc(N3CCOC[C@@H]3C)c3ccc(-c4cccc(O)c4)nc3n2)C[C@H](C)O1 [Example 1bz] | < 100 nM
C[C@@H]1CN(c2nc(N3CCOC[C@@H]3C)c3ccc(-c4ccoc4)nc3n2)C[C@H](C)O1 [Example 1cf] | < 300 nM
C[C@@H]1CN(c2nc(N3CCOC[C@@H]3C)c3ccc(-c4ccc(O)cc4)nc3n2)C[C@H](C)O1 [Example 1cg] | < 100 nM
C[C@@H]1CN(c2nc(N3CCOC[C@@H]3C)c3ccc(-c4ccc([N+](=O)[O-])cc4)nc3n2)C[C@H](C)O1 [Example 1ci] | < 300 nM
COc1ccc(-c2ccc3c(N4CCOC[C@@H]4C)nc(N4C[C@@H](C)O[C@@H](C)C4)nc3n2)cc1 [Example 1cj] | < 300 nM
CNC(=O)c1ccc(-c2ccc3c(N4CCOC[C@@H]4C)nc(N4CCOC[C@@H]4C)nc3n2)cc1F [Example 1cv] | < 300 nM
C[C@H]1COCCN1c1nc(N2CCOC[C@@H]2C)c2ccc(-c3ccccc3)nc2n1 [Example 1d] | < 100 nM
C[C@H]1COCCN1c1nc(N2CCOC[C@@H]2C)c2ccc(-c3ccc(O)cc3)nc2n1 [Example 1e] | < 100 nM
Cc1ccc(-c2ccc3c(N4CCOC[C@@H]4C)nc(N4CCOC[C@@H]4C)nc3n2)cc1 [Example 1f] | < 100 nM
C[C@H]1COCCN1c1nc(N2CCOC[C@@H]2C)c2ccc(-c3ccc(CO)cc3)nc2n1 [Example 1g] | < 100 nM
C[C@H]1COCCN1c1nc(N2CCOC[C@@H]2C)c2ccc(-c3cccc(O)c3)nc2n1 [Example 1h] | < 100 nM
C[C@H]1COCCN1c1nc(N2CCOC[C@@H]2C)c2ccc(-c3cccc(CO)c3)nc2n1 [Example 1i] | < 100 nM
C[C@@H]1CN(c2nc(N3CCOC[C@@H]3C)c3ccc(-c4ccsc4)nc3n2)C[C@H](C)O1 [Example 1k] | < 100 nM
COc1ccc(-c2ccc3c(N4CCOC[C@@H]4C)nc(N4CCOCC4)nc3n2)cc1CO [Example 1l] | < 100 nM
C[C@H]1COCCN1c1nc(N2CCOC[C@@H]2C)c2ccc(-c3cccnc3F)nc2n1 [Example 1p] | < 300 nM

SMILES | IC50
C[C@H]1COCCN1c1nc(N2CCOC[C@@H]2C)c2ccc(-c3ccc(N4CCOCC4)nc3)nc2n1 [Example 1q] | < 300 nM
C[C@H]1COCCN1c1nc(N2CCOC[C@@H]2C)c2ccc(-c3cnn(C)c3)nc2n1 [Example 1s] | < 100 nM
C[C@H]1COCCN1c1nc(N2CCOC[C@@H]2C)c2ccc(-c3ccc(N)nc3)nc2n1 [Example 1u] | < 100 nM
C[C@H]1COCCN1c1nc(N2CCCCC2CO)nc2nc(-c3cccc(C(N)=O)c3)ccc12 (stereo partly shown) [Example 2f] | < 300 nM
C[C@H]1COCCN1c1nc(N2CCCCC2CO)nc2nc(-c3ccc(N)nc3)ccc12 (stereo partly shown) [Example 2g] | < 300 nM
C[C@H]1COCCN1c1nc(N2CCOC[C@@H]2C)c2ccc(-c3cccc(C(=O)Nc4cc[nH]n4)c3)nc2n1 [Example 3a] | < 300 nM
CNC(=O)c1cc(-c2ccc3c(N4CCOC[C@@H]4C)nc(N4CCOC[C@@H]4C)nc3n2)ccc1OC [Example 3ad] | < 100 nM
C[C@H]1COCCN1c1nc(N2CCOC[C@@H]2C)c2ccc(-c3cccc(C(=O)NCCF)c3)nc2n1 [Example 3e] | < 300 nM
C[C@H]1COCCN1c1nc(N2CCOC[C@@H]2C)c2ccc(-c3cccc(C(=O)NC4CCOCC4)c3)nc2n1 [Example 3i] | < 100 nM
C[C@H]1COCCN1c1nc(N2CCOC[C@@H]2C)c2ccc(-c3cccc(C(=O)NCC(F)F)c3)nc2n1 [Example 3l] | < 100 nM
CON(C)C(=O)c1cc(-c2ccc3c(N4CCOC[C@@H]4C)nc(N4CCOC[C@@H]4C)nc3n2)ccc1F [Example 3y] | < 100 nM
CNCc1ccc(-c2ccc3c(N4CCOC[C@@H]4C)nc(N4CCOC[C@@H]4C)nc3n2)cc1 [Example 4a] | < 100 nM
COCCNCc1cc(-c2ccc3c(N4CCOC[C@@H]4C)nc(N4CCOC[C@@H]4C)nc3n2)ccc1F [Example 4aa] | < 300 nM
C[C@H]1COCCN1c1nc(N2CCOC[C@@H]2C)c2ccc(-c3ccc(F)c(CNCCO)c3)nc2n1 [Example 4ac] | < 100 nM
C[C@H]1COCCN1c1nc(N2CCOC[C@@H]2C)c2ccc(-c3ccc(F)c(CN4CC[C@@H](O)C4)c3)nc2n1 [Example 4ad] | < 300 nM
C[C@H]1COCCN1c1nc(N2CCOC[C@@H]2C)c2ccc(-c3ccc(F)c(CN(C)C)c3)nc2n1 [Example 4af] | < 100 nM
C[C@H]1COCCN1c1nc(N2CCOC[C@@H]2C)c2ccc(-c3ccc(F)c(CN4CCC[C@@H](O)C4)c3)nc2n1 [Example 4ah] | < 300 nM
CC(C)N(C)Cc1cc(-c2ccc3c(N4CCOC[C@@H]4C)nc(N4CCOC[C@@H]4C)nc3n2)ccc1F [Example 4ai] | < 100 nM
C[C@H]1COCCN1c1nc(N2CCOC[C@@H]2C)c2ccc(-c3ccc(F)c(CN4CC[C@H](O)C4)c3)nc2n1 [Example 4ak] | < 100 nM

SMILES | IC50
COc1ccc(-c2ccc3c(N4CCOC[C@@H]4C)nc(N4CCOC[C@@H]4C)nc3n2)cc1CNC(C)C [Example 4am] | < 100 nM
COc1ccc(-c2ccc3c(N4CCOC[C@@H]4C)nc(N4CCOC[C@@H]4C)nc3n2)cc1CNC1CCCC1 [Example 4an] | < 300 nM
COc1ccc(-c2ccc3c(N4CCOC[C@@H]4C)nc(N4CCOC[C@@H]4C)nc3n2)cc1CNC1CCCCC1 [Example 4ao] | < 100 nM
COc1ccc(-c2ccc3c(N4CCOC[C@@H]4C)nc(N4CCOC[C@@H]4C)nc3n2)cc1CNCc1cccs1 [Example 4ap] | < 300 nM
COc1ccc(-c2ccc3c(N4CCOC[C@@H]4C)nc(N4CCOC[C@@H]4C)nc3n2)cc1CNC1CCOCC1 [Example 4aq] | < 100 nM
COc1ccc(-c2ccc3c(N4CCOC[C@@H]4C)nc(N4CCOC[C@@H]4C)nc3n2)cc1CNCCC(C)(C)C [Example 4as] | < 100 nM
COc1ccc(-c2ccc3c(N4CCOC[C@@H]4C)nc(N4CCOC[C@@H]4C)nc3n2)cc1CNCCC(C)C [Example 4at] | < 100 nM
COc1ccc(-c2ccc3c(N4CCOC[C@@H]4C)nc(N4CCOC[C@@H]4C)nc3n2)cc1CNC(C)CC(C)C (stereo partly shown) [Example 4au] | < 100 nM
CCN(CC)CCCNCc1cc(-c2ccc3c(N4CCOC[C@@H]4C)nc(N4CCOC[C@@H]4C)nc3n2)ccc1OC [Example 4av] | < 300 nM
COc1ccc(-c2ccc3c(N4CCOC[C@@H]4C)nc(N4CCOC[C@@H]4C)nc3n2)cc1CNC1CCCCC1C (stereo partly shown) [Example 4aw] | < 100 nM
COc1ccc(-c2ccc3c(N4CCOC[C@@H]4C)nc(N4CCOC[C@@H]4C)nc3n2)cc1CNCC1CC1 [Example 4ax] | < 100 nM
CCCCNCc1cc(-c2ccc3c(N4CCOC[C@@H]4C)nc(N4CCOC[C@@H]4C)nc3n2)ccc1OC [Example 4ay] | < 100 nM
COc1ccc(-c2ccc3c(N4CCOC[C@@H]4C)nc(N4CCOC[C@@H]4C)nc3n2)cc1CNCC(C)C [Example 4az] | < 100 nM
C[C@H]1COCCN1c1nc(N2CCOC[C@@H]2C)c2ccc(-c3ccc(CN)cc3)nc2n1 [Example 4b] | < 100 nM
COc1ccc(-c2ccc3c(N4CCOC[C@@H]4C)nc(N4CCOC[C@@H]4C)nc3n2)cc1CNCCO [Example 4ba] | < 100 nM
COCCNCc1cc(-c2ccc3c(N4CCOC[C@@H]4C)nc(N4CCOC[C@@H]4C)nc3n2)ccc1OC [Example 4bb] | < 100 nM
COc1ccc(-c2ccc3c(N4CCOC[C@@H]4C)nc(N4CCOC[C@@H]4C)nc3n2)cc1CNC1CCC(C)CC1 (stereo partly shown) [Example 4bc] | < 100 nM
COc1ccc(CCNCc2cc(-c3ccc4c(N5CCOC[C@@H]5C)nc(N5CCOC[C@@H]5C)nc4n3)ccc2OC)cc1 [Example 4bd] | < 100 nM
COc1ccc(-c2ccc3c(N4CCOC[C@@H]4C)nc(N4CCOC[C@@H]4C)nc3n2)cc1CNCCc1cnc[nH]1 [Example 4be] | < 100 nM

Same assay, conditions: Homo sapiens, MDA-MB-468, read-out: IC50 values against mTOR, phospho-Ser473 Akt assay, MDA-MB-468 cells, upper bound

SMILES | IC50
C[C@H]1COCCN1c1nc(N2CCOC[C@@H]2C)c2ccc(-c3cccnc3)nc2n1 [Example 1bu] | < 1000 nM
C[C@@H]1CN(c2nc(N3CCOC[C@@H]3C)c3ccc(-c4ccncc4)nc3n2)C[C@H](C)O1 [Example 1ce] | < 1000 nM
C[C@H]1COCCN1c1nc(N2CCOC[C@@H]2C)c2ccc(-c3ccc4nc[nH]c(=O)c4c3)nc2n1 [Example 1cl] | < 1000 nM
C[C@H]1COCCN1c1nc(N2CCCC(CO)C2)nc2nc(-c3cccc(C(N)=O)c3)ccc12 (stereo partly shown) [Example 2d] | < 1000 nM
C[C@H]1COCCN1c1nc(N2CCC(c3ccncc3)CC2)nc2nc(-c3ccc(N)nc3)ccc12 [Example 2e] | < 1000 nM
C[C@H]1COCCN1c1nc(N2CCC(CO)CC2)nc2nc(-c3cccc(C(N)=O)c3)ccc12 [Example 2h] | < 1000 nM
C[C@H]1COCCN1c1nc(N2CCC(CCO)CC2)nc2nc(-c3ccc(N)nc3)ccc12 [Example 2j] | < 1000 nM
C[C@H]1COCCN1c1nc(N2CCOC[C@@H]2C)c2ccc(-c3cccc(C(=O)NCC(F)(F)F)c3)nc2n1 [Example 3f] | < 1000 nM
C[C@H]1COCCN1c1nc(N2CCOC[C@@H]2C)c2ccc(-c3cccc(C(=O)N4CC[C@@H](O)C4)c3)nc2n1 [Example 3g] | < 1000 nM
CCN(C)C(=O)c1cc(-c2ccc3c(N4CCOC[C@@H]4C)nc(N4CCOC[C@@H]4C)nc3n2)ccc1OC [Example 3u] | < 1000 nM
C[C@H]1COCCN1c1nc(N2CCOC[C@@H]2C)c2ccc(-c3ccc(F)c(CNCCF)c3)nc2n1 [Example 4ab] | < 1000 nM
COCCN(C)Cc1cc(-c2ccc3c(N4CCOC[C@@H]4C)nc(N4CCOC[C@@H]4C)nc3n2)ccc1F [Example 4aj] | < 1000 nM

Same assay, conditions: Homo sapiens; phospho-Ser473 Akt assay, MDA-MB-468 cells, upper bound; read-out: IC50 values against mTOR

IC50 | SMILES
< 1000 nM | C[C@H]1COCCN1c1nc(N2CCOC[C@@H]2C)c2ccc(-c3cccc(Cl)n3)nc2n1 [Example 1v]

— patent publication US9102670B2, “Pyrido-, pyrazo- and pyrimido-pyrimidine derivatives as mTOR inhibitors” (KuDOS Pharmaceuticals Limited, priority 2006, dated 2015)
